Laboratory results as given in the NIST ThermoML archive (doi:10.1007/s10765-009-0593-3).

Experiment: xn = mol fraction of the nth substance listed
Conditions: 101 kPa, Liquid; for speed of sound: Pulse-echo method

CCCOCC(C)OCC(C)O (stereo not given) [1-(1-methyl-2-propoxyethoxy)-2-propanol] + CCCCNCCCC
Conditions | mass density, 288.15 K [kg/m3] | mass density, 293.15 K [kg/m3] | mass density, 298.15 K [kg/m3] | mass density, 303.15 K [kg/m3] | mass density, 308.15 K [kg/m3] | speed of sound, 288.15 K [m/s] | speed of sound, 293.15 K [m/s] | speed of sound, 298.15 K [m/s] | speed of sound, 303.15 K [m/s] | speed of sound, 308.15 K [m/s]
x1 = 0.123 | 792.458 | 788.243 | 783.999 | 779.716 | 775.539 | 1291.2 | 1271.6 | 1252 | 1232.1 | 1212.2
x1 = 0.1582 | 798.993 | 794.736 | 790.406 | 786.126 | 781.949 | 1293.2 | 1273.2 | 1253.7 | 1233.9 | 1214
x1 = 0.1913 | 804.954 | 800.654 | 796.281 | 791.94 | 787.756 | 1294.9 | 1274.7 | 1255.1 | 1235.5 | 1215.5
x1 = 0.2541 | 815.956 | 811.61 | 807.16 | 802.761 | 798.492 | 1297.6 | 1277.1 | 1257.5 | 1238.1 | 1218.1
x1 = 0.3195 | 827.1 | 822.71 | 818.293 | 813.903 | 809.461 | 1299.8 | 1279.3 | 1259.6 | 1240.4 | 1220.4
x1 = 0.3623 | 834.198 | 829.803 | 825.41 | 821.074 | 816.52 | 1300.9 | 1280.5 | 1260.8 | 1241.7 | 1221.7
x1 = 0.4155 | 842.79 | 838.381 | 834.053 | 829.782 | 825.107 | 1302 | 1281.8 | 1262 | 1243 | 1223.1
x1 = 0.4543 | 848.877 | 844.447 | 840.151 | 835.948 | 831.19 | 1302.6 | 1282.7 | 1262.9 | 1243.9 | 1223.9
x1 = 0.4974 | 855.422 | 850.98 | 846.721 | 842.533 | 837.752 | 1303.2 | 1283.5 | 1263.7 | 1244.7 | 1224.7
x1 = 0.5491 | 863.031 | 858.573 | 854.308 | 850.092 | 845.325 | 1303.6 | 1284.3 | 1264.5 | 1245.6 | 1225.6
x1 = 0.6027 | 870.648 | 866.201 | 861.902 | 857.606 | 852.894 | 1304 | 1285.1 | 1265.2 | 1246.4 | 1226.4
x1 = 0.6687 | 879.855 | 875.389 | 871.011 | 866.586 | 861.99 | 1304.3 | 1285.8 | 1266 | 1247.1 | 1227.2
x1 = 0.6962 | 883.669 | 879.204 | 874.806 | 870.321 | 865.762 | 1304.4 | 1286 | 1266.3 | 1247.4 | 1227.5
x1 = 0.7504 | 891.256 | 886.786 | 882.325 | 877.785 | 873.301 | 1304.6 | 1286.4 | 1266.8 | 1248 | 1228
x1 = 0.7997 | 898.225 | 893.775 | 889.311 | 884.771 | 880.284 | 1304.8 | 1286.7 | 1267.3 | 1248.4 | 1228.5
x1 = 0.8657 | 907.649 | 903.208 | 898.805 | 894.377 | 889.838 | 1305.3 | 1287 | 1267.9 | 1249 | 1229.1
x1 = 0.8963 | 911.923 | 907.504 | 903.128 | 898.789 | 894.205 | 1305.5 | 1287.2 | 1268.2 | 1249.3 | 1229.4
x1 = 0.9589 | 920.017 | 915.65 | 911.3 | 907.024 | 902.428 | 1306.3 | 1287.4 | 1268.8 | 1250 | 1230
